Where a name gives a salt, the structure may show the parent alone. Read-outs that look alike come from different tables or passages of the source.
Columns and labels:
[1] = target: T1, recombinant human B1 receptors (Homo sapiens, UniProt P46663); experiment: Functional assay: cytosolic calcium ion concentration measured with plate reader fluorimeter in CHO-B1 cells, agonist LysDABK; format: cell-based
T1 construct: host or cells: CHO (CHO-B1)
T1 sequence (P46663 1-353): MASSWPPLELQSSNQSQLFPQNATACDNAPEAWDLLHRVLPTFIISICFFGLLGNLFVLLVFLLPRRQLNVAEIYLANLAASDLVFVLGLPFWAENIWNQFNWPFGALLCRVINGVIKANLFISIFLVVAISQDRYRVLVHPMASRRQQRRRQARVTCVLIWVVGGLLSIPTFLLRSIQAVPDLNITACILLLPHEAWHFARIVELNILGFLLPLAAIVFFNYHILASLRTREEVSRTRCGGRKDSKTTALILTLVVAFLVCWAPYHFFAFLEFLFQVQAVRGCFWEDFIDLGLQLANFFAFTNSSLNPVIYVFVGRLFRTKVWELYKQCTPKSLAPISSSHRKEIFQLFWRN
Protocol: Assessment of Antagonist Potency at B1 and B2 Receptors In Vitro by Measurement of Cytosolic Calcium Ion Concentration with a Plate Reader Fluorimeter in Cells Expressing Recombinant Human B1 or B2 Receptors
Chinese hamster ovary (CHO) cells stably expressing recombinant human B1 (CHO-B1, Euroscreen) or B2 (CHO-B2, Perkin-Elmer) receptors were cultured in Dulbecco's Modified Eagle's Medium (DMEM) containing 10% Fetal Calf Serum (FCS), 100 U/ml penicillin, 0.1 mg/ml streptomycin, 0.25 μg/ml amphotericin B, 1% Minimum Essential Medium Eagle (MEM), non essential amino acid solution, 600 μg/ml G418, 1% pyruvate (for the B2 cell line). Cells were kept at 37° C. in a humidified incubator in an atmosphere of 5% CO2/95% air and were passaged 1:4 three times a week. Cells were plated at 1.5-2.5×10^4 cell/well on standard 96-well microplates, measurements of cytosolic calcium ion concentration ([Ca^2+]i) were carried out 1-2 days after cell plating.
Measurements of [Ca^2+]i were carried out on CHO-B1 and CHO-B2 cells stably expressing human B1 and B2 receptors, respectively. Cells were grown in standard 96-well microplates and before the measurement were loaded with a fluorescent Ca^2+-sensitive dye, fluo-4/AM (2 μM): after removing the culture medium the dye was added to the cells (dissolved in assay buffer: 145 mM NaCl, 5 mM KCl, 2 mM MgCl2, 2 mM CaCl2, 10 mM HEPES, 20 mM D-glucose, 2 mM probenecid, 100 μl/well) and cells were incubated at 37° C. in a humidified incubator in an atmosphere of 5% CO2/95% air for 40-120 min. To stop dye loading cells were washed twice with assay buffer. After washing, various concentrations of the test compounds (diluted in extracellular medium from a DMSO stock solution, final DMSO concentration was <0.1%) or buffer were added to each well depending on the experimental setup. After incubation at 37° C. for 20-25 min. baseline and agonist-evoked changes of [Ca^2+]i were measured column by column with a plate reader fluorimeter (Fluoroskan Ascent, Labsystems). Excitation and detection of emission was carried out from the bottom of the plate. Filters used for Fluo-4: excitation filter—485 nm, emission filter—538 nm. The whole measurement process was performed at 37° C. and was controlled by custom software. Inhibitory potency of the test compounds was assessed by measuring the reduction in the agonist-evoked [Ca^2]i-elevation in the presence of different concentrations of the compounds. The agonists were LysDABK for CHO-B1, and bradykinin for CHO-B2 cells. Agonists were applied at an EC80 concentration, the EC80-values were derived from daily determined dose-response curves. Fluorescence data were expressed as ΔF/F (fluorescence change normalized to baseline). All treatments on a single plate were measured in multiple wells. Data from all wells with the same treatment were averaged and the average values were used for analysis. Inhibitory potency of a compound at a single concentration point was expressed as percent inhibition of the control agonist response. Sigmoidal concentration-inhibition curves were fitted to the data (derived from at least three independent experiments) and IC50-values were determined as the concentration that produces half of the maximal inhibition caused by the compound.

[2] = target: T2, human recombinant bradykinin B1 receptor (Homo sapiens, UniProt P46663); experiment: Human recombinant bradykinin B1 receptor binding
T2 construct: purchased Euroscreen ES-091; host or cells: CHO cells
T2 sequence (P46663 1-353): T1 sequence (P46663 1-353)
Protocol: 1. Human Recombinant Bradykinin B1 Receptor Binding
Binding assays were carried out on human recombinant bradykinin) receptors (expressed in CHO cells) according to the Euroscreen Technical Data Sheet (Cat.No.:ES-091). 20 μg protein/tube was incubated with [3,4-prolyl-3,4-^3H(N)]-[Des-Arg^10] Kallidin as radioligand. Non specific binding was determined in the presence of 10 μM Lys-des-Arg^9-Bradykinin. The final incubation volume was 250 μl. Samples were incubated for 15 min. at 25° C. then were rapidly vacuum filtered through GF/B filters presoaked for at least 1 h in 0.5% PEI. Radioactivity was determined by liquid scintillation spectroscopy.

[3] = CHO-B1 cells, LysDABK at EC80, [Ca2+]i, read-out: B1 func.
[4] = radioligand [3H]-[Des-Arg10] Kallidin, CHO cell membranes, read-out: B1 binding
[5] = reference compounds, functional test, read-out: IC50
[6] = reference compounds, binding test, read-out: Ki

| IC50 [1, 3] [µM] | Ki [2, 4] [µM] | Structure (SMILES) | IC50 [1, 5] [µM] | Ki [2, 6] [µM] |
| --- | --- | --- | --- | --- |
| 0.02 to 0.1 | 0.02 to 0.1 | O=C(NCCCN1CCC(N2CCCCC2)CC1)c1ccc(S(=O)(=O)Nc2ccccc2Oc2ccccc2)cc1 [Example 152, N-(3-[1,4′]Bipiperidhlyl-1′-yl-propyl)-4-(2-phenoxy-phenylsulfamoyl)-benzamide] |  |  |
| < 0.02 | < 0.02 | O=C(NCCCN1CCC(N2CCCCC2)CC1)c1ccc(S(=O)(=O)Nc2ccccc2Oc2ccc(Br)cc2Cl)cc1 [Example 157, N-(3-[1,4′]Bipiperidinyl-1′-yl-propyl)-4-[2-(4-bromo-2-chloro-phenoxy)-phenylsulfamoyl]-benzamide] |  |  |
| 0.02 to 0.1 | 0.02 to 0.1 | O=C(NCCN1CCN(c2cnccn2)CC1)c1ccc(S(=O)(=O)Nc2ccccc2Oc2ccc(Br)cc2Cl)cc1 [Example 159, 4-[2-(4-Bromo-2-chloro-phenoxy)-phenylsulfamoyl]-N-[2-(2,3,5,6-tetrahydro-[1,2′]bipyrazinyl-4-14)-ethyl]-benzamide] |  |  |
| 0.02 to 0.1 | 0.02 to 0.1 | O=C(NCc1ccc(CC2CCNCC2)cc1)c1ccc(S(=O)(=O)Nc2ccccc2Oc2ccc(Br)cc2Cl)cc1 [Example 166, 4-[2-(4-Bromo-2-chloro-phenoxy)-phenylsulfamoyl]-N-(4-piperidin-4-ylmethyl-benzyl)-benzamide hydrochloride] |  |  |
| 0.02 to 0.1 | 0.02 to 0.1 | O=C(NCCCCC1CCNCC1)c1ccc(S(=O)(=O)Nc2ccccc2Oc2ccc(Br)cc2Cl)cc1 [Example 167, 4-[2-(4-Bromo-2-chloro-phenoxy)-phenylsulfamoyl]-N-(4-piperidin-4-yl-butyl)-benzamide hydrochloride] |  |  |
| < 0.02 | < 0.02 | O=C(Nc1ccc(N2CCC(N3CCCCC3)CC2)cc1)c1ccc(S(=O)(=O)Nc2ccccc2Oc2ccc(Br)cc2Cl)cc1 [Example 169, N-(4-[1,4′]Bipiperidinyl-1′-yl-phenyl)-4-[2-(4-bromo-2-chloro-phenoxy)-phenylsulfamoyl]-benzamide] |  |  |
| < 0.02 | < 0.02 | O=C(NCCCCC1CCNCC1)c1ccc(S(=O)(=O)Nc2ccccc2Oc2ccc(Cl)cc2Cl)cc1 [Example 170, 4-[2-(2,4-Dichloro-phenoxy)-phenylsulfamoyl]-N-(4-piperidin-4-yl-butyl)-benzamide hydrochloride] |  |  |

Continued, molecule first:

| Structure (SMILES) | IC50 [1, 3] [µM] | Ki [2, 4] [µM] | IC50 [1, 5] [µM] | Ki [2, 6] [µM] |
| --- | --- | --- | --- | --- |
| COc1ccc(Oc2ccccc2NS(=O)(=O)c2ccc(C(=O)NCCCN3CCC(N4CCCCC4)CC3)cc2)c(Cl)c1 [Example 147, N-(3-[1,4′]Bipiperidinyl-1′-yl-propyl)-4-[2-(2-chloro-4-methoxy-phenoxy)-phenylsulfamoyl]-benzamide] | 0.02 to 0.1 | 0.02 to 0.1 |  |  |
| CN1CCN(C(=O)C2CCN(S(=O)(=O)c3ccc(NCC(c4ccccc4)c4ccccc4)c(C(=O)N4CCOCC4)c3)CC2)CC1 [NVP-SAA164, 4-{2-[(2,2-diphenyl-ethyl)-amino]-5-{4-[4-[(4-methyl-1-piperazinyl)-carbonyl]-1-piperidinyl]-sulfonyl}-benzoyl}-morfoline, reference compound] |  |  | 0.033 | 0.008 |
| CCCN1C(=O)[C@H](NC(=O)Nc2ccc(N3CCN(c4ccncc4)CC3)cc2)N=C(CCc2ccccc2)c2ccccc21 [compound 2, (R)—N-[2,3-dihydro-2-oxo-5-(2-phenyl-ethyl)-1-propyl-1H-1,4-benzodiazepin-3-yl]-N′-{4-[4-(4-pyridinyl)-1-piperazinyl]-phenyl}-urea, reference compound] |  |  | 0.0019 | 0.00059 |
| CCCN1C(=O)[C@H](NC(=O)Nc2ccc(N3CCC(N4CCCCC4)CC3)cc2)N=C(c2ccc(C)cc2)c2ccccc21 [compound 3, N-[4-(,4′-bipiperidin)-1′-ylphenyl]-N′-[(3R)-2,3-dihydro-5-(4-methyl-phenyl)-2-oxo-1-propyl-1H-1,4-benzodiazepin-3-yl]-urea, reference compound] |  |  | 0.0645 | 0.0134 |
